Measurements from paper PMC8284473, “Preliminary Characterization of NP339, a Novel Polyarginine Peptide with Broad Antifungal Activity” (Antimicrobial Agents and Chemotherapy, 2021).
Values after ≈ are worked out from the molar mass of the structure shown. Peptide text beside a SMILES is read from it.

Experiments:
[1] = tested on: C. albicans NCTC 3179; type: cell-based, Candida albicans; conditions: NCTC 3179, 24 h
[2] = tested on: C. auris; assay: Time-kill assay in culture media; type: cell-based, Candida auris; conditions: C. auris (n = 1), inoculum 1 × 10^6 to 5 × 10^6 cells/ml
Method: (§1) For Candida spp., the cells were grown for at least 18 to 24 h at 30°C, until visible growth was observed. The cells were then centrifuged and resuspended in sterile distilled H2O and diluted to the 0.5 McFarland standard density using 2× RPMI 1640 medium. The tested antifungals were prepared at twice the required concentration. Then, 1 ml of the inoculum was added to 1 ml of the antifungal solution and incubated at 30°C. Every hour over the course of 8 h, 20 μl of the culture was removed and 10-fold serial dilutions were prepared (from 1 × 10^−1 to 1 × 10^−7). Then, 50 μl of each dilution was plated on SAB agar (Sigma) in triplicate. […] The colonies were counted, and the percentage killed was determined based on the reduction in the number of CFU/ml in the treated samples compared with the vehicle-treated, untreated controls.

[3] = tested on: C. albicans SC5314; type: cell-based, Candida albicans; conditions: 30 passages in 0.25× MIC of the same antifungal, MIC at passage 0 normalized to 1, average of three independent replicates
Method: (§2) Cell growth of all fungi was followed by measuring the optical density at 530 nm (OD530) using the Powerwave XS plate reader (Biotek, Swindon, United Kingdom).
(§3) The fungal inoculum was prepared according to the CLSI standard M27-A3 ([32]). For the analysis, 100 μl of the antifungal stock was added to a 96-well polystyrene plate in triplicate. […] The passaging was repeated 30 times. Every five passages, a full MIC analysis was done, as specified above.

[4] = tested on: C. tropicalis AM2005/0568; type: cell-based, Candida tropicalis; conditions: 30 passages in 0.25× MIC of the same antifungal, passage 0 = 1, average of three independent replicates
Method: as §2, §3

[5] = tested on: C. glabrata AM2007/0125; type: cell-based, Candida glabrata; conditions: 30 passages in 0.25× MIC of the same antifungal, passage 0 = 1, average of three independent replicates
Method: as §2, §3

[6] = tested on: A. fumigatus conidia; assay: Time-kill assay in culture media; type: cell-based, Aspergillus fumigatus; conditions: A. fumigatus conidia (n = 2), inoculum 1 × 10^5 cells/ml, antibiotic medium 3
Method: For Candida spp., the cells were grown for at least 18 to 24 h at 30°C, until visible growth was observed. The cells were then centrifuged and resuspended in sterile distilled H2O and diluted to the 0.5 McFarland standard density using 2× RPMI 1640 medium. The tested antifungals were prepared at twice the required concentration. Then, 1 ml of the inoculum was added to 1 ml of the antifungal solution and incubated at 30°C. Every hour over the course of 8 h, 20 μl of the culture was removed and 10-fold serial dilutions were prepared (from 1 × 10^−1 to 1 × 10^−7). Then, 50 μl of each dilution was plated on SAB agar (Sigma) in triplicate. The plates were incubated at 30°C until colonies were observed on the control plates with vehicle-treated fungi. The colonies were counted, and the percentage killed was determined based on the reduction in the number of CFU/ml in the treated samples compared with the vehicle-treated, untreated controls.
For A. fumigatus, a subculture was grown on a SAB agar (Sigma) slant for 72 h at 35°C until sporulation. A. fumigatus cells were harvested from the slant into 0.15 M NaCl (Fisher Scientific UK, Ltd.), and conidia were isolated by passing through an EASYStrainer cell sieve (70-μm pore; Greiner Bio-One, Gloucester, United Kingdom) The conidial suspension was diluted to 1 × 10^5 CFU/ml in 2× antibiotic medium 3 (Oxoid). For germling analysis, the conidial suspension was incubated for 8 h at 35°C prior to analysis; for conidial experiments, it was used immediately. The experiment was performed as described for Candida spp.

[7] = tested on: C. auris DSMZ1092; type: cell-based, Candida auris; conditions: 30 passages in 0.25× MIC of the same antifungal, passage 0 = 1, average of three independent replicates
Method: as §2, §3

[8] = tested on: C. albicans AM2003-0182; assay: Transmission electron microscopy of planktonic cells; type: cell-based, Candida albicans; conditions: 1× MIC, 30 min exposure
Method: For the TEM analysis, an overnight culture of C. albicans AM2003-0182 was diluted to a density of 1 × 10^8 cells/ml in 2× RPMI 1640 medium, and the mixture was incubated at 35°C for 1 h. The cells were then washed three times in sterile water and once in 0.01 M sodium phosphate buffer. […] The cells were then fixed in 2.5% (vol/vol) glutaraldehyde and stored at 4°C before analysis. For TEM analysis, the cells were dehydrated in an ethanol and acetone series before being embedded in […] resin, stained with uranyl acetate/lead citrate stains to improve contrast, sectioned to a 90-nm thickness, and mounted onto copper grids for TEM analysis. TEM micrographs were acquired using a JEM-1400 Plus JEOL transmission electron microscope. Microscopy was performed in the Microscopy and Histology Core Facility at the University of Aberdeen (United Kingdom).

[9] = tested on: C. albicans; assay: Time-kill assay in culture media; type: cell-based, Candida albicans; conditions: C. albicans (n = 2), inoculum 1 × 10^6 to 5 × 10^6 cells/ml, RPMI 1640, 30°C
Method: as §1, with “The” for “For Candida spp., the cells were grown for at least 18 to 24 h at 30°C, until visible growth was observed. The cells were then centrifuged and resuspended in sterile distilled H2O and diluted to the 0.5 McFarland standard density using 2× RPMI 1640 medium. The”

[10] = tested on: C. albicans AM2003-0182; assay: MIC (CLSI) of the agents used for TEM; type: cell-based, Candida albicans; conditions: standard CLSI methods

For `N=C(N)NCCC[C@H](NC(=O)[C@H](CCCNC(=N)N)NC(=O)[C@H](CCCNC(=N)N)NC(=O)[C@H](CCCNC(=N)N)NC(=O)[C@H](CCCNC(=N)N)NC(=O)[C@H](CCCNC(=N)N)NC(=O)[C@H](CCCNC(=N)N)NC(=O)[C@H](CCCNC(=N)N)NC(=O)[C@@H](N)CCCNC(=N)N)C(=O)O`, the MIC [1] was 2,048 μM.
In the case of `N=C(N)NCCC[C@H](NC(=O)[C@H](CCCNC(=N)N)NC(=O)[C@H](CCCNC(=N)N)NC(=O)[C@H](CCCNC(=N)N)NC(=O)[C@H](CCCNC(=N)N)NC(=O)[C@H](CCCNC(=N)N)NC(=O)[C@H](CCCNC(=N)N)NC(=O)[C@H](CCCNC(=N)N)NC(=O)[C@H](CCCNC(=N)N)NC(=O)[C@H](CCCNC(=N)N)NC(=O)[C@@H](N)CCCNC(=N)N)C(=O)O`, the MIC [1] is reported as 8 µM (≈ 13.9 µg/mL).
For `C[C@@H]1[C@H](O)[C@@H](C)/C=C/C=C/C=C/C=C/C=C/C=C/C=C/[C@H](O[C@@H]2O[C@H](C)[C@@H](O)[C@H](N)[C@@H]2O)C[C@@H]2O[C@](O)(C[C@@H](O)C[C@@H](O)[C@H](O)CC[C@@H](O)C[C@@H](O)CC(=O)O[C@H]1C)C[C@H](O)[C@H]2C(=O)O` [Amphotericin B], the “Time of kill (time taken to kill 3 logs)” value ([2]; final concn 32 mg/liter = 16× MIC (amphotericin B)) was 4 h, the “Fold change in antifungal MIC at passage 30” value (“Fold change in antifungal MIC” for short) [3] was 4 and the “Fold change in antifungal MIC” value [4] was 4. For the same compound, the “Fold change in antifungal MIC” value [5] was 1, the “Time of kill (time taken to kill 2 logs)” value ([6]; final concn 2–8 mg/liter = 4–16× MIC) was 48 h and the “Fold change in antifungal MIC” value [7] was 4.
`CC[C@H](C)C[C@H](C)CCCCCCCCC(=O)N[C@H]1C[C@@H](O)[C@@H](NCCN)NC(=O)[C@@H]2[C@@H](O)CCN2C(=O)[C@H]([C@H](O)CCN)NC(=O)[C@H]([C@H](O)[C@@H](O)c2ccc(O)cc2)NC(=O)[C@@H]2C[C@@H](O)CN2C(=O)[C@H]([C@@H](C)O)NC1=O` [Caspofungin] was tested, and the “Cell destruction (lysis) seen by TEM” value [8] was “not observed”, the “Time of kill (time taken to kill 3 logs)” value ([2]; final concn 16 mg/liter = 16× MIC) was 6–24 h and the “Fold change in antifungal MIC” value [3] was 4. For the same compound, the “Fold change in antifungal MIC” value [4] was 8, the “Fold change in antifungal MIC” value [5] was 1 and the “Time of kill (time taken to kill 2 logs)” value ([6]; final concn 2–32 mg/liter = 1–16× MIC) was 48 h. For the same compound, the “Fold change in antifungal MIC” value [7] was 1, the “Time of kill (time taken to kill 3 logs)” value ([9]; final concn 1 mg/liter = 4× MIC) was 4 h and the “MIC (1× MIC, final concentration used for TEM)” value [10] was 0.5 µg/mL.
`OC(Cn1cncn1)(Cn1cncn1)c1ccc(F)cc1F` [Fluconazole] was tested, and the “Time of kill (time taken to kill 3 logs)” value ([9]; final concn 32 mg/liter = 32× MIC) was 6 h.
In the case of `CC[C@@H]([C@H](C)O)n1ncn(-c2ccc(N3CCN(c4ccc(OC[C@@H]5CO[C@@](Cn6cncn6)(c6ccc(F)cc6F)C5)cc4)CC3)cc2)c1=O` [Posaconazole], the “Time of kill (time taken to kill 2 logs)” value ([6]; final concn 4 mg/liter = 16× MIC) is reported as 24 h.
With `N=C(N)NCCC[C@H](NC(=O)[C@H](CCCNC(=N)N)NC(=O)[C@H](CCCNC(=N)N)NC(=O)[C@H](CCCNC(=N)N)NC(=O)[C@H](CCCNC(=N)N)NC(=O)[C@H](CCCNC(=N)N)NC(=O)[C@@H](N)CCCNC(=N)N)C(=O)O` [RRRRRRR] the MIC [1] was >2,048 μM.
`N=C(N)NCCC[C@H](NC(=O)[C@H](CCCNC(=N)N)NC(=O)[C@H](CCCNC(=N)N)NC(=O)[C@H](CCCNC(=N)N)NC(=O)[C@@H](N)CCCNC(=N)N)C(=O)O` [RRRRR] (H-RRRRR-OH) was tested, and the MIC [1] was >2,048 μM.
`N=C(N)NCCC[C@H](NC(=O)[C@H](CCCNC(=N)N)NC(=O)[C@@H](N)CCCNC(=N)N)C(=O)O` [RRR] (H-Arg-Arg-Arg-OH) was tested, and the MIC [1] was >2,048 μM.
In the case of `C[C@@H](c1ncncc1F)[C@](O)(Cn1cncn1)c1ccc(F)cc1F` [Voriconazole], the “Time of kill (time taken to kill 2 logs)” value ([6]; final concn 2–8 mg/liter = 16× MIC) is reported as 48 h.
For “human β-defensin 2 (GIGDPVTCLKSGAICHPVFCPRRYKQIGTCGLPGTKCCKKP; UniProt O15263 24-64, looked up) [endogenous human host defense peptide used as comparator in TEM]”, the “Cell destruction (lysis) seen by TEM” value [8] was “not observed” and the “MIC (1× MIC, final concentration used for TEM)” value [10] was 25 µg/mL.
